Experimental data taken from paper doi:10.1101/2025.09.04.674342, “Tandem association of CLOCK:BMAL1 complexes on DNA enables recruitment of CBP/p300 through multivalent interactions” (bioRxiv, 2025).
Values belong to the molecule of their own block, whether it stands above or below them. No end group written: not given here.

What was measured:
[1] = test system: CREB-induced Per1-luc activation; experiment: Per1-luc reporter in HEK293T cells after forskolin stimulation; format: cell-based, human; details: compounds 16 hours, 10 μM forskolin 2 hours before harvest, n = 3, Fig. 5g
Protocol: HEK293T cells were purchased from ATCC (cat. #CRL-3216) were cultured in 10% DMEM (i.e. 10% (v/v) FBS) and 1X penicillin-streptomycin (Thermo Fisher) at 37°C in an incubator humidified with 5% CO2. Forskolin (CAS 66575-29-9, cat. #F3917, Sigma Aldrich), KG-501/naphthol-AS-E-phosphate (CAS 18228-17-6, cat. #70485, Sigma Aldrich), XX-650–23 (CAS 117739-40-9, cat. #AOB31725, Aobious), and 666–15 (CAS 1433286-70-4, cat. #AMBH97F07B56, Sigma Aldrich) were stored as recommended by the manufacturer and assessed by 1D NMR before use.
For Per1-luc reporter assays with inhibitors, 48-well plates with HEK293T cells were transfected with LT-1 (Mirus) and the following plasmids in duplicate: 5 ng pGL3 Per1-luciferase[8] and 395 ng empty pcDNA4 vector; for CLOCK:BMAL1 activity, 5 ng pGL3 Per1-luciferase, 100 ng pSG5 Clock, 100 ng pSG5 Bmal1, and 195 ng empty pcDNA4 vector. Cells were treated with compounds as indicated or 1% DMSO 24 hours after transfection for 16 hours prior to harvesting. For forskolin treatment, 10 μM forskolin was added 2 hours prior to harvesting. Cells were lysed in Passive Lysis Buffer ([…]) according to the protocol and luciferase activity was measured with Bright-Glo reagent ([…]) on an EnVision plate reader (Perkin Elmer). Each reporter assay was repeated at least three times.

CBP KIX [2] = molecular target: T1, CBP KIX (Mus musculus, UniProt P45481); experiment: Fluorescence polarization competition assay, CBP KIX:TAD WT titrated with KG-501; format: binding
T1 construct: mouse CBP (UniProt P45481) KIX (residues 586–672); made in house; host or cells: Rosetta (DE3) E. coli
Protocol: TAMRA fluorescent probe covalently attached to the N-terminus; the C-terminus of the Δswitch peptide was amidated, while the others were left as a free carboxyl group. Equilibrium binding assays (Fig. 5b) with CBP KIX, TAZ1, and TAZ2 and competition assay with CBP KIX:TAD WT titrated with KG-501 (Fig. 5i) were performed in 10 mM MES pH 6.5, 50 mM NaCl and 0.05% (v/v) Tween-20. Concentrated stocks of BMAL1 TAD probes were stored between 15–200 μM at −70°C and diluted in assay buffer to 50 nM alone (binding assays) or to 10 nM bound to 2 μM CBP KIX (competition assay) and in the presence of increasing concentrations of KG-501. Plates were incubated at room temperature for 10–20 minutes prior to analysis. Binding was monitored by changes in fluorescence polarization with an EnVision 2103 multilabel plate reader (Perkin Elmer) with excitation at 531 nm and emission at 595 nm. The Hill coefficient and equilibrium binding dissociation constant (KD) were calculated by fitting the dose-dependent change in millipolarization (Δmp) to a one-site specific binding model (binding assays) or an [inhibitor] vs. response (three parameters) model (competition assay) in Prism (GraphPad). Data shown for equilibrium binding assays are from a representative experiment (n=4 replicates) of three independent assays (Fig. 5b). […]

CREB = test system: CREB; design: method as in PMID 19810079, PMID 27211267; details: cited from earlier work
[3] = cited from earlier work
WT CBP KIX = experiment: Isothermal titration calorimetry, CBP KIX WT with BMAL1 TAD; format: binding, mouse
Protocol: (§1) ITC measurements were obtained as previously described. Briefly, proteins were extensively dialyzed at 4°C in 10 mM MES pH 6.5, 50 mM NaCl using a 2 kDa molecular weight cutoff filter dialysis tubing (Spectrum Labs) prior to collecting ITC data. ITC was performed on a MicroCal VP-ITC calorimeter at 25°C with a stir speed of 177 rpm, reference power of 10 μCal/sec and 10 μL injection sizes. Protein ratios for the cell and syringe for the ITC assays (3 independent runs for each complex) were 220–230 μM CBP KIX WT or 3mut titrated into 20–25 μM BMAL1 TAD WT or L606A/L607A as indicated (stoichiometry (n) = 0.8–1.1). All data were best fit by a one-site binding model using Origin software.

[4] = test system: 3mut CBP KIX (Y650A, A654Q, Y658A); experiment: Isothermal titration calorimetry, 3mut CBP KIX with BMAL1 TAD; format: binding, mouse; details: same conditions as WT KIX; Fig. 4b
Protocol: as §1

[5] = test system: 3mut CBP KIX (Y650A, A654Q, Y658A); experiment: 15N-1H HSQC NMR titration of 15N BMAL1 TAD with 3mut CBP KIX; format: binding, mouse; details: versus WT KIX
Protocol: (§2) NMR experiments were conducted on a Varian INOVA 600-MHz spectrometer equipped with ^1H, ^13C, ^15N triple resonance, Z-axis pulsed field gradient cryoprobe. All NMR data were collected at 25°C. NMR data were processed using NMRPipe/NMRDraw[79]. ^15N-^1H HSQC spectra CBP KIX were performed in 330 μL volume in a Shigemi tube with 100 μM ^15N CBP KIX in NMR buffer (10 mM MES pH 6.5, 50 mM NaCl) and 10% (v/v) D2O in the presence of stepwise additions of concentrated stocks of BMAL1 TAD or truncated peptides. ^15N-^1H HSQC spectra of BMAL1 TAD WT or L606A/L607A were performed in 330 μL volume in a Shigemi tube with 100 μM ^15N BMAL1 TAD in NMR buffer (10 mM MES pH 6.5, 50 mM NaCl) and 10% (v/v) D2O in the presence of stepwise additions of CBP KIX (WT or 3mut), TAZ1, or TAZ2, followed by concentration in an Amicon Ultra centrifugal filter with a 3 kDa MWCO (Merck Millipore). Chemical shift assignments of BMAL1 TAD (entry 25280) and CBP KIX (entry 6750) were obtained from the Biological Magnetic Resonance Data Bank (BMRB); CBP KIX assignments at pH 5.5 were transferred to the spectrum at pH 6.5 via a 3-step pH titration. Titration data for protein interactions were analyzed with NMRViewJ (One Moon Scientific) using chemical shift perturbations defined by the equation ΔδTOT = [(Δδ^1H)^2 + (χ(Δδ^15N)^2]^½ and normalized with the scaling factor χ = 0.5[80].

CBP KIX [6] = molecular target: T1, CBP KIX; experiment: 15N-1H HSQC NMR titration of 15N CBP KIX with BMAL1 TAD peptides; format: binding; details: for binding of locked switch peptides to CBP KIX by pattern of CSPs: Fig. 3d
Protocol: as §2

CBP KIX [7] = molecular target: T1, CBP KIX; experiment: 15N-1H HSQC NMR titration of 15N BMAL1 TAD L606A/L607A with CBP KIX; format: binding; details: versus WT TAD with WT KIX
Protocol: as §2

CBP TAZ1 = molecular target: T2, CBP TAZ1 (Mus musculus, UniProt P45481); experiment: 15N-1H HSQC NMR titration of 15N BMAL1 TAD L606A/L607A with CBP TAZ1; format: binding; details: 100 μM 15N TAD L606A/L607A; Fig. 6e,f
T2 construct: Mouse CBP (UniProt P45481) TAZ1 (residues 340–439); made in house; host or cells: Rosetta (DE3) E. coli
Protocol: as §2

CBP TAZ2 = molecular target: T3, CBP TAZ2 (Mus musculus, UniProt P45481, C1776A/C1784A/C1827A/C1828A); experiment: 15N-1H HSQC NMR titration of 15N BMAL1 TAD L606A/L607A with CBP TAZ2; format: binding; details: 100 μM 15N TAD L606A/L607A; Fig. 6g,h
T3 construct: Mouse CBP (UniProt P45481) TAZ2 (residues 1764–1855); MBP; made in house; host or cells: E. coli (BL21)
T3 sequence (P45481 1764-1855 C1776A/C1784A/C1827A/C1828A): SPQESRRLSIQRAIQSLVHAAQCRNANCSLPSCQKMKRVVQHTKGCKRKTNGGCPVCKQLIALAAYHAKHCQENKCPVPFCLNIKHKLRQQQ
Protocol: as §2

T1 sequence (P45481 586-672): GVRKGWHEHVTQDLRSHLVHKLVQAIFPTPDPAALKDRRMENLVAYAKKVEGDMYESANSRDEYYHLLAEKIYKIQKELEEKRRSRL
T2 sequence (P45481 340-439): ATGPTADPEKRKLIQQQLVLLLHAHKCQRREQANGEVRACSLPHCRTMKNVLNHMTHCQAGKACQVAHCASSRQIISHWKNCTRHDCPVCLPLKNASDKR

Molecule: O=C(Nc1ccc(Cl)cc1)c1cc2ccccc2cc1OP(=O)(O)O [KG-501, naphthol-AS-E-phosphate]
Activation of Per1-luc reporter after forskolin (Fsk) stimulation [1]: moderately decreased potency relative to the others
IC50 (CBP KIX [2]; 2 μM CBP KIX bound to 10 nM [5,6] TAMRA-labeled minimal BMAL1 TAD probe, 10 mM MES pH 6.5, 50 mM NaCl, 0.05% Tween-20, mean from 2 replicates done in duplicate, read-out: IC50, displacement of CBP KIX from TAD probe): 222 ± 22.5 µM
Ki (CBP KIX [2]; KD = 2 μM set for the BMAL1 TAD-CBP KIX interaction, read-out: Ki calculated from the Cheng-Prusoff equation): 111 µM

Molecule: N#Cc1ccc(NC(=O)c2cc3ccccc3cc2O)cc1 [XX-650–23]
activity in cells relative to KG-501 (CREB): more active in cells
solubility [3]: poor solubility

Molecule: BMAL1 TAD: recombinant mouse BMAL1 transactivation domain, residues 579–626
Kd (WT CBP KIX; 220–230 μM CBP KIX titrated into 20–25 μM BMAL1 TAD, 10 mM MES pH 6.5, 50 mM NaCl, 25°C, 3 independent runs, one-site model, read-out: KD by ITC): ~2 µM
binding by ITC (in words) [4]: disrupted
reduction of affinity by mutation of the CBP KIX c-Myb site [5]: about 100 fold

Molecule: FSDLPWAL [P625A switch, trans-locked switch peptide with P625A substitution]
binding of locked switch peptides to CBP KIX by pattern of CSPs (CBP KIX [6]; 100 μM 15N CBP KIX): can bind at the MLL1 site

Molecule: FSDLPWdmPL [P625dmP-switch, cis-locked switch peptide with 5,5-dimethyl L-proline at position 625]
binding of locked switch peptides to CBP KIX by pattern of CSPs (CBP KIX [6]; 100 μM 15N CBP KIX): can bind at the MLL1 site

The remaining lines, values ahead:

KD for the CBP KIX domain estimated by fitting concentration-dependent CSPs (CBP KIX [6]; 100 μM 15N CBP KIX, 10 mM MES pH 6.5, 50 mM NaCl, 25°C, Fig. 3b): hundreds of micromolar
Kd (CBP KIX [6]; 100 μM 15N CBP KIX, 10 mM MES pH 6.5, 50 mM NaCl, 25°C, Fig. 3b, read-out: KD for the CBP KIX domain estimated by fitting concentration-dependent CSPs): > 500 µM
Molecule: FSDLPWPL-OH [switch]

reduction of affinity for CBP KIX by mutation in the BMAL1 TAD helix (CBP KIX [7]): about 100 fold
binding by ITC (in words) (WT CBP KIX; same conditions as WT TAD, Fig. 4e): did not yield any binding heats
changes of the 15N-1H HSQC spectrum on addition of CBP TAZ1 (CBP TAZ1): almost no changes to the spectrum
interaction with CBP TAZ2 by 15N-1H HSQC (CBP TAZ2): retained interaction
Molecule: TAD LL/AA: recombinant BMAL1 TAD (579–626) with L606A/L607A mutation of the IXXLL motif

apparent affinity for CBP KIX relative to the isolated switch peptide (CBP KIX [6]; 100 μM 15N CBP KIX titrated with peptide, Fig. 3a): modestly higher apparent affinity
site of chemical shift perturbations on CBP KIX (CBP KIX [6]; peptide 100 μM, 1:1 stoichiometry with 15N CBP KIX, Fig. 2e): perturbs the MLL1 site
Molecule: linker-switch: residues 613–626 of mouse BMAL1 (LGGPVDFSDLPWPL)
